This is an account of results in US20220135539A1, “BIARYL AMIDE COMPOUNDS, PREPARATION METHODS AND MEDICAL APPLICATIONS THEREOF” (Eternity Bioscience Inc., priority 2020, published 2022).

One assay has as its target human recombinant cRAF (Homo sapiens, UniProt P04049). Put plainly: cRAF Inhibition Assay (TR-FRET). It counts as biochemical. As to the method:
(§1) Activity of human recombinant cRAF were assessed in vitro using time-resolved fluorescence resonance energy transfer (TR-FRET) assay. The assay was performed according to the kit instructions. Briefly, the cRAF enzyme (BPS Bioscience, cat #40008) was diluted to 0.027 ng/μL using the 1× kinase buffer A (Life Tech, cat #PV6135, 5× dilution with H2O); the Fluorescein labeled-MAP2K1 (Life Tech, Cat #PV4812) was diluted to 0.5 μM; ATP (Life Tech, cat #PV3227) was diluted to 20 μM; 2.54, of each diluted reagent was added to a 384-well plate (PerkinElmer, ProxiPlate-384 Plus, 6008280) and mixed together; 2.54, serial diluted compound were added into the mixture. 104, 400-fold diluted LanthaScreen Tb-pMAP2K1 (pSer217/221) antibody (Life Tech, cat #PV4817) was then added to each kinase reaction. The reactions were incubated at Room Temperature for 1 hour. The plate was then read on PHERAstar FSX using 340/490/520 module. Inhibition data were calculated by comparison to vehicle control wells for 0% inhibition and non-stimulated control wells for 100% inhibition. Dose response curves were then generated to determine the concentration required to suppress 50% of enzymatic response (IC50) as derived by non-linear regression analysis using GraphPad Prism.
A general note: TR-FRET usually uses a lanthanide donor and a delayed reading to cut background.

The target in the next assay is T1, human recombinant BRAF (Homo sapiens, UniProt P15056).
T1 construct: purchased BPS Bioscience 40065
Put plainly: BRAF^WT Inhibition Assay (TR-FRET). It counts as biochemical. As to the method: as §1, with “BRAF” for “cRAF”, “#40065)” for “#40008)”

Assay [1] deals with T2, human recombinant V600E mutant BRAF (Homo sapiens, UniProt P15056, V600E).
T2 construct: purchased BPS Bioscience 40533
Put plainly: BRAF^V600E Inhibition Assay (TR-FRET). It counts as biochemical. As to the method:
Activity of human recombinant V600E mutant BRAF were assessed in vitro using time-resolved fluorescence resonance energy transfer (TR-FRET) assay. The assay was performed according to the kit instructions. Briefly, the V600E mutant BRAF enzyme (BPS Bioscience, cat #40533) was diluted to 0.027 ng/μL using the 1× kinase buffer A (Life Tech, cat #PV6135, 5× dilution with H2O); the Fluorescein labeled-MAP2K1 (Life Tech, Cat #PV4812) was diluted to 0.5 μM; ATP (Life Tech, cat #PV3227) was diluted to 20 μM; 2.5 μl of each diluted reagent was added to a 384-well (PerkinElmer, ProxiPlate-384 Plus, 6008280) plate and mixed together; 2.54, serial diluted compounds were added into the mixture. 104, 400-fold diluted LanthaScreen Tb-pMAP2K1 (pSer217/221) antibody (Life Tech, cat #PV4817) was then added to each kinase reaction. The reactions were incubated at Room Temperature for 1 hour. The plate was then read on PHERAstar FSX using 340/490/520 module. Inhibition data were calculated by comparison to vehicle control wells for 0% inhibition and non-stimulated control wells for 100% inhibition. Dose response curves were then generated to determine the concentration required to suppress 50% of enzymatic response (IC50) as derived by non-linear regression analysis using GraphPad Prism.

The test system of assay [2] is NCI-H358 (KRAS^G12C) non-small cell lung cancer cell. Put plainly: NCI-H358 Cancer Cell Growth Inhibition Assay (CellTiter-Glo). The class given is cell-based, human. To be noted: for GI50: Homo sapiens, 72 h, NCI-H358 cells, incubated for 3 days, CellTiter-Glo. As to the method:
Activity of human NCI-H358 (KRAS^G12C) non-small cell lung cancer cell growth inhibition was assessed in vitro using CellTiter-Glo® Luminescent Cell Viability Assay. The assay was performed according to the kit instructions (Promega, cat #G7570). Briefly, NCI-H358 cells (ATCC, #CRL-5807) were seeded in 96-well plates at a density of 2,500 cells/well in and cells were cultured overnight in a humidified, 5% CO2 cell culture incubator at 37° C. 10 μL serial diluted compounds were added into each cell-culture well and incubated for 3 days. 100 μL CellTiter-Glo® Reagent was added into each well. The reactions were incubated at Room Temperature for 10 minutes, and luminescence signals were recorded on a Tecan Luminescence Plate Reader. Inhibition data were calculated by comparison to vehicle control wells for 0% inhibition and non-stimulated control wells for 100% inhibition. Dose response curves were then generated to determine the concentration required to suppress 50% of cellular growth response (GI50) as derived by non-linear regression analysis using GraphPad Prism.
In general terms: ATP-based viability assays read luminescence as a measure of living cells.

The test system of assay [3] is A375 (BRAF^V600E) malignant melanoma cell. Put plainly: A375 Cell Growth Inhibition Assay (CellTiter-Glo). The class given is cell-based, human. To be noted: for GI50: Homo sapiens, A-375, 72 h, A375 cells, incubated for 3 days, CellTiter-Glo. As to the method: Activity of human A375 (BRAF^V600E) malignant melanoma cell growth inhibition was assessed in vitro using CellTiter-Glo® Luminescent Cell Viability Assay. The assay was performed according to the kit instructions (Promega, cat #G7570). Briefly, A375 cells (ATCC, #CRL-1619™) were seeded in 96-well plates at a density of 2,500 cells/well in 90 and cells were cultured overnight in a humidified, 5% CO2 cell culture incubator at 37° C. 10 μL serial diluted compounds were added into each cell-culture well and incubated for 3 days. […] Reagent was added into each well. The reactions were incubated at Room Temperature for 10 minutes, and luminescence signals were recorded on a Tecan Luminescence Plate Reader. Inhibition data were calculated by comparison to vehicle control wells for 0% inhibition and non-stimulated control wells for 100% inhibition. Dose response curves were then generated to determine the concentration required to suppress 50% of cellular growth response (GI50) as derived by non-linear regression analysis using GraphPad Prism.

Assay [4] relates to Calu6 (KRAS^Q16K) cancer cell. Put plainly: Calu6 Cancer Cell Growth Inhibition Assay (CellTiter-Glo). The class given is cell-based, human. To be noted: for GI50: Homo sapiens, Calu-6, 72 h, Calu6 cells, incubated for 3 days, CellTiter-Glo. As to the method:
Activity of human Calu6 (KRAS^Q16K) cancer cell growth inhibition was assessed in vitro using CellTiter-Glo® Luminescent Cell Viability Assay. The assay was performed according to the kit instructions (Promega, cat #G7570). Briefly, Calu6 cells (ATCC, #HTB-56™) were seeded in 96-well plates at a density of 2,500 cells/well in 90 and cells were cultured overnight in a humidified, 5% CO2 cell culture incubator at 37° C. 10 μL serial diluted compounds were added into each cell-culture well and incubated for 3 days. 100 μL CellTiter-Glo® Reagent was added into each well. The reactions were incubated at Room Temperature for 10 minutes, and luminescence signals were recorded on a Tecan Luminescence Plate Reader. Inhibition data were calculated by comparison to vehicle control wells for 0% inhibition and non-stimulated control wells for 100% inhibition. Dose response curves were then generated to determine the concentration required to suppress 50% of cellular growth response (GI50) as derived by non-linear regression analysis using GraphPad Prism.

The next assay deals with RAF Kinase. To be noted: background statement on the reference compound; cited from earlier work.

T1 sequence (P15056 whole entry): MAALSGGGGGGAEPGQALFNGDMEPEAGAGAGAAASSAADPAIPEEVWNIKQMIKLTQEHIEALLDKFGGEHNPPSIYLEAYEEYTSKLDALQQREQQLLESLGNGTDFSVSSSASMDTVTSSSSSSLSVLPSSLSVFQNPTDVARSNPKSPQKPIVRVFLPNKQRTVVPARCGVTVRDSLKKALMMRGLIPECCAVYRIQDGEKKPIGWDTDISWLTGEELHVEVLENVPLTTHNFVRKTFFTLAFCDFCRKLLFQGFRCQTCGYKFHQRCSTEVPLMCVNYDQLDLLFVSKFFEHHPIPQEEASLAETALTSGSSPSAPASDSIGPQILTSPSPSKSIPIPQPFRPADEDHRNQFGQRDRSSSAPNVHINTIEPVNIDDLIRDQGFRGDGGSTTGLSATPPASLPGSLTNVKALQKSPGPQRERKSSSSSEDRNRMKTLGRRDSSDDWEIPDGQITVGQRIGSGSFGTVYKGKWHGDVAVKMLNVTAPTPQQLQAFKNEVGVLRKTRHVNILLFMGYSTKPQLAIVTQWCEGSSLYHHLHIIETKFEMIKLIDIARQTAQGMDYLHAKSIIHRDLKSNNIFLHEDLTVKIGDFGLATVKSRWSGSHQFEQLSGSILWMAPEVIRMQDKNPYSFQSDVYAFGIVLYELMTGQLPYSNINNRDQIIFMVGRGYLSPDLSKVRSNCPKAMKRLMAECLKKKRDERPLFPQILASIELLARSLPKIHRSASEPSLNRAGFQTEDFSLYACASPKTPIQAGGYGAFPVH
Chain of human recombinant cRAF (P04049 whole entry Y340D/Y341D, form open): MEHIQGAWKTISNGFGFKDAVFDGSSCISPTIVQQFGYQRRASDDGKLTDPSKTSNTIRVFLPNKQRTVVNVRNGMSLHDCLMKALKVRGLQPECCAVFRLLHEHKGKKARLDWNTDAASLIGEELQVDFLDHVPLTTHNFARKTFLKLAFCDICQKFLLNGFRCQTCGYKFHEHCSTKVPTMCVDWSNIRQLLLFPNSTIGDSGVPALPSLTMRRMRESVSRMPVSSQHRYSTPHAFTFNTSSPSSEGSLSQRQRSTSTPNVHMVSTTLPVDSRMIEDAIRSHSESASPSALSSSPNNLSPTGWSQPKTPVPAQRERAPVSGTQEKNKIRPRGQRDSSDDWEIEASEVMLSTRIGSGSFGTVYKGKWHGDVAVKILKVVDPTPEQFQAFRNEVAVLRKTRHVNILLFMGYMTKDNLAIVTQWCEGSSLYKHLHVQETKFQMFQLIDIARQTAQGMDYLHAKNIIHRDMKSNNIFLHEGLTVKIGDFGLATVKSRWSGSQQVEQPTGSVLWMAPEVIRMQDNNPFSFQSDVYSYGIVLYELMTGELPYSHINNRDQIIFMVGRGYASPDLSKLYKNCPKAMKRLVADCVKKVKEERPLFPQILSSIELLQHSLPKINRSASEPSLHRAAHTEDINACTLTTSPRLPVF
T2 sequence (P15056 whole entry V600E): as the sequence (P15056 whole entry) above, with V600E counted along it

With `Cc1ccc(NC(=O)c2ccc3c(c2)OC(F)(F)O3)cc1-c1cc(OCCO)nc(N2CCOCC2)c1` [Example 1, 2,2-difluoro-N-(3-(2-(2-hydroxyethoxy)-6-morpholinopyridin-4-yl)-4-methylphenyl)benzo[d][1,3]dioxole-5-carboxamide], the IC50 at human recombinant cRAF is 0.015 µM; on human recombinant BRAF, 0.087 µM; in assay [1], 0.0325 µM. In addition, the “cellular potency, H358” value in assay [2] (H358 cancer cell line) is listed as “excellent cellular potency”. Further, in assay [2] (H358 cancer line, compared to LXH254), the “cell growth inhibition in H358 cancer line compared to LXH254” value is reported as “better or similar cell growth inhibition”. Also, the GI50 stood at 0.48 µM in assay [2], 0.15 µM in assay [3] and 0.064 µM in assay [4]. Also, in assay [3] (A375 cancer cell line), the “cellular potency, A375” value was “excellent cellular potency”. Moreover, in assay [4] (Calu6 cancer cell line), the “cellular potency, Calu6” value is given as “excellent cellular potency”.

Regarding `Cc1ccc(NC(=O)c2ccnc(C(F)(F)F)c2)cc1-c1cc(OCCO)nc(N2CCOCC2)c1` [LXH254, reference compound], the IC50 came out at 0.013 µM at human recombinant cRAF, 0.038 µM on human recombinant BRAF and 0.043 µM in assay [1]. Further, the results for the GI50 in assay [2], in assay [3] and in assay [4] were 3 µM, 0.89 µM and 0.92 µM, respectively. In addition, the “potency for bRAF and cRAF” value in the assay on RAF Kinase is on record as “nanomolar potency”.

What is called IC50 is the point on the concentration scale where inhibition reaches its midpoint. For orientation: GI50 means the concentration giving 50% growth inhibition. Low values mean more potent growth inhibition, high ones less potent growth inhibition.
